“And” between values parts separate entries of the source, which are not always exact repeats. Equal entries are not always repeated. Where two headings read alike, the source gives them in different places.
Key:
Plasma stability [1] = conditions: for half-life at 1 μM: male, CD-1, mouse, plasma
Plasma stability [2] = conditions: for half-life at 1 μM: male, Sprague-Dawley, rat, plasma
[3] = CD-1, mouse
[4] = male, Sprague-Dawley, rat, pH 7.4
[5] = male, CD-1, mouse
[6] = both, human, pH 7.4
Plasma stability [7] = conditions: for half-life at 1 μM: both, human, plasma
[8] = both, human
[9] = male, Sprague-Dawley, rat
in vitro [10] = conditions: human
POWV = experiment: microbe, parasite or virus in culture; type: cell-based, Powassan virus
CHIKV = experiment: microbe, parasite or virus in culture; type: cell-based, Chikungunya virus
[11] = mouse, in vivo, po, 15 mg/kg
Poliovirus = experiment: microbe, parasite or virus in culture; type: cell-based
in vitro [12] = conditions: Syrian golden hamster
DENV2 = experiment: microbe, parasite or virus in culture; type: cell-based, Dengue virus 2; conditions: Dengue virus
YFV = experiment: microbe, parasite or virus in culture; type: cell-based; conditions: Yellow fever virus, Huh-7
in vitro [13] = conditions: dog
Influenza A H1N1 = experiment: microbe, parasite or virus in culture; type: cell-based, influenza A virus
VEEV = experiment: microbe, parasite or virus in culture; type: cell-based, Venezuelan equine encephalitis virus
EEEV = experiment: microbe, parasite or virus in culture; type: cell-based, Eastern equine encephalitis virus; conditions: Eastern equine encephalitis virus
MERS = experiment: microbe, parasite or virus in culture; type: cell-based, MERS coronavirus; conditions: Middle East respiratory syndrome-related coronavirus
in vitro [14] = conditions: human; remark: listed apart in the source
in vitro [15] = conditions: human; remark: listed apart in the source
SARS-CoV-2 = experiment: microbe, parasite or virus in culture; type: cell-based; conditions: Severe acute respiratory syndrome coronavirus 2, Vero C1008
Tacaribe virus = experiment: microbe, parasite or virus in culture; type: cell-based
MEV = experiment: microbe, parasite or virus in culture; type: cell-based; conditions: Measles morbillivirus, Vero 76
Parainfluenza virus 3 = experiment: organism not typed; type: cell-based
Junin virus = experiment: microbe, parasite or virus in culture; type: cell-based
WNV = experiment: microbe, parasite or virus in culture; type: cell-based; conditions: West Nile virus, Vero 76
physchem [16] = conditions: simulated gi fluid, pH 1.3
RSV = experiment: microbe, parasite or virus in culture; type: cell-based; conditions: human respiratory syncytial virus, MA104
[17] = female, ICR (CD-1), mouse, in vivo, po
HRV-14 = experiment: microbe, parasite or virus in culture; type: cell-based, human rhinovirus; conditions: Rhinovirus B, HRV14
RVFV = experiment: microbe, parasite or virus in culture; type: cell-based, Rift Valley fever virus
ENTV71 = experiment: microbe, parasite or virus in culture; type: cell-based, EV-A71; conditions: Enterovirus A, Vero 76
physchem [18] = conditions: simulated gi fluid, pH 5.2
Enterovirus-68 = experiment: microbe, parasite or virus in culture; type: cell-based, EV-D68
Heartland virus = experiment: microbe, parasite or virus in culture; type: cell-based; conditions: Vero
Vero cells = conditions: African green monkey
[19] = system: Severe fever thrombocytopenia syndrome virus; experiment: organism not typed; type: cell-based; conditions: Vero
in vitro [20] = conditions: African green monkey
Flu A H3N2 = experiment: microbe, parasite or virus in culture; type: cell-based, influenza A virus
[21] = Liver microsome stability; conditions: both, human, pH 7.4
Flu A H5N1 (Low Path) = experiment: microbe, parasite or virus in culture; type: cell-based, influenza A virus
[22] = Liver microsome stability; conditions: CD-1, mouse
Flu B = experiment: microbe, parasite or virus in culture; type: cell-based, influenza B virus
Marpol virus = experiment: organism not typed; type: cell-based
Pichinde virus = experiment: microbe, parasite or virus in culture; type: cell-based; conditions: Vero
[23] = Liver microsome stability; conditions: male, Sprague-Dawley, rat, pH 7.4
[24] = system: Lymphocytic choriomeningitis virus; experiment: microbe, parasite or virus in culture; type: cell-based; conditions: Mammarenavirus choriomeningitidis, Vero
Usutu virus = experiment: microbe, parasite or virus in culture; type: cell-based; conditions: Vero 76
Flu A H5N1 (High Path) = type: cell-based, influenza A virus
La Crosse virus = experiment: microbe, parasite or virus in culture; type: cell-based
WEEV = experiment: microbe, parasite or virus in culture; type: cell-based, Western equine encephalitis virus
in vitro [25] = conditions: African green monkey; remark: listed apart in the source
Punta Toro virus = experiment: microbe, parasite or virus in culture; type: cell-based
ZIKV = experiment: microbe, parasite or virus in culture; type: cell-based, Zika virus; conditions: for EC50: Vero 76 cells
EBOV = experiment: microbe, parasite or virus in culture; type: cell-based, Ebola virus; conditions: Zaire ebolavirus, Vero
Flu A H7N9 (High Path) = experiment: microbe, parasite or virus in culture; type: cell-based, influenza A virus
[26] = Mammarenavirus tacaribeense, Vero
[27] = Rift Valley fever virus, Huh-7, RVFV strain MP-12, Huh7 cells
[28] = Western equine encephalitis virus, Vero 76

Compound: CC(C)[C@H](N)C(=O)OC[C@@]1(F)O[C@@H](n2ccc(=O)[nH]c2=O)[C@H](O)[C@@H]1O [EIDD-2971, [(1S)-1-[[(2S,3S,4R,5R)-5-(2,4-dioxopyrimidin-1-yl)-2-fluoro-3,4-dihydroxy-tetrahydrofuran-2-yl]methoxycarbonyl]-2-methyl-propyl]ammonium chloride]
- half-life (Plasma stability [1]; mouse plasma, drug 1.00 μM): 59 min
- half-life (Plasma stability [2]; rat plasma, drug 1.00 μM): 50 min
- max [2749] [3]: 0.305 µM
- half-life ([3]; microsomes): 11 min
- half-life ([4]; microsomes): 33 min
- max [2749] [4]: 0.203 µM
- max [2749] [5]: 0.267 µM
- half-life ([6]; microsomes): 38 min
- max [2749] [6]: 0.179 µM
- half-life (Plasma stability [7]; human plasma, drug 1.00 μM, 37° C.): 81 min
- max [2749] [8]: 0.0152 µM
- max [2749] [9]: 0.155 µM

Compound: CC(C)OC(=O)[C@H](C)N[P@](=O)(OC[C@@]1(F)O[C@@H](n2ccc(=O)[nH]c2=O)[C@H](O)[C@@H]1O)Oc1ccccc1 [EIDD-3232, isopropyl ((S)-(((2S,3S,4R,5R)-5-(2,4-dioxo-3,4-dihydropyrimidin-1(2H)-yl)-2-fluoro-3,4-dihydroxytetrahydrofuran-2-yl)methoxy)(phenoxy)phosphoryl)-L-alaninate]
- CC50 (in vitro [10]): > 32 µM
- EC50 (POWV; Powassan virus, BHK-21, POWV(Lineage 1) strain LB, BHK-21 cells): > 32 µM
- EC50 (CHIKV; Chikungunya virus, Huh-7): 5.7 µM
- EC90 (CHIKV; Chikungunya virus, Huh-7): 4.5 µM
- Tolerability Summary [11]: Class D
- EC50 (Poliovirus; Enterovirus C, Vero 76, Poliovirus strain Mahoney, Vero 76 cells): > 32 µM
- CC50 (in vitro [12]): > 32 µM
- EC50 (DENV2; DENV2, Huh-7): 4.2 µM
- EC90 (DENV2; DENV2, Huh-7): 19 µM
- EC50 (YFV): 15 µM
- CC50 (in vitro [13]): > 32 µM
- EC50 (Influenza A H1N1; Influenza A virus, H1N1, MDCK): 1.3 µM
- EC90 (Influenza A H1N1; Influenza A virus, H1N1, MDCK): 1.5 µM
- EC50 (VEEV; Venezuelan equine encephalitis virus, Vero 76, VEEV strain TC-83, Vero 76 cells): > 32 µM
- EC50 (EEEV; Vero 76, EEEV strain FL39-939, Vero 76 cells): > 32 µM
- EC50 (MERS; Vero 76): > 32 µM
- CC50 (in vitro [14]): > 32 µM
- CC50 (in vitro [15]): > 32 µM
- EC50 (SARS-CoV-2): > 17 µM
- EC90 (Tacaribe virus; [26]): 3.9 µM
- EC50 (Tacaribe virus; Mammarenavirus tacaribeense, Vero, Tacaribe virus strain TRVL 11573, Vero cells): 2.8 µM
- EC50 (MEV): 9.6 µM
- EC50 (Parainfluenza virus 3; MA104): > 32 µM
- EC90 (Junin virus; Mammarenavirus juninense, Vero): 2.2 µM
- EC50 (Junin virus; Mammarenavirus juninense, Vero, Junin virus strain Candid #1, Vero cells): 2 µM
- EC50 (WNV): > 32 µM
- half-life (physchem [16]): 288 min
- EC50 (RSV): > 32 µM
- Cmax [17]: 2940 ± 826 nM
- EC50 (HRV-14): > 32 µM
- EC50 (RVFV; [27]): 6.4 µM
- EC90 (RVFV; [27]): 7.4 µM
- EC50 (ENTV71): > 32 µM
- half-life (physchem [18]): > 1440 min
- EC50 (Enterovirus-68; Enterovirus D, RD): 18 µM

Compound: O=c1ccn([C@@H]2O[C@](F)(COP3(=O)OCc4ccccc4O3)[C@@H](O)[C@H]2O)c(=O)[nH]1 (stereo partly drawn) [EIDD-2838]
- CC50 (in vitro [10]): > 230 µM
- half-life at 1 μM (Plasma stability [1]): 1 min
- half-life at 1 μM (Plasma stability [2]): < 1 min
- EC50 (POWV): 98.9 µM
- EC50 (POWV; Powassan virus, BHK): 75.9 µM
- EC50 (CHIKV; CHIKV, Vero76 cells): 3.68 µM and 3.91 µM
- EC90 (CHIKV; Chikungunya virus, Vero 76): 23.9 µM
- EC50 (CHIKV; Chikungunya virus, Vero 76, CHIKV, Vero76 cells): 2.3 µM
- EC50 (Poliovirus): 8.74 µM
- EC50 (Poliovirus; Enterovirus C, Vero 76): 7.36 µM
- EC90 (Heartland virus): 8.05 µM
- CC50 (Vero cells): 213 µM
- EC90 [19]: 7.82 µM
- CC50 (in vitro [12]): > 230 µM
- CC50 (in vitro [20]): > 230 µM
- EC50 (DENV2; DENV2, Vero 76): > 230 µM
- EC90 (DENV2; DENV2, Vero 76): 29.9 µM
- EC50 (Flu A H3N2): 0.87 µM
- EC50 (Flu A H3N2; Influenza A virus, H3N2, MDCK): 0.97 µM
- CC50 (in vitro [13]): > 230 µM
- EC50 (Influenza A H1N1): 1.2 µM and 1.59 µM and 1.98 µM
- EC50 (Influenza A H1N1; Influenza A virus, H1N1, MDCK): 2.3 µM
- EC50 (VEEV): 8.51 µM
- EC50 (VEEV; Venezuelan equine encephalitis virus, Vero 76): 8.28 µM
- half-life at 1 μM ([21]; microsomes): 7 min
- EC50 (Flu A H5N1 (Low Path)): 0.71 µM
- EC50 (Flu A H5N1 (Low Path); Influenza A virus, H5N1, MDCK): 0.78 µM
- EC90 (EEEV; Vero 76): 28.4 µM
- EC50 (MERS; Vero 76): 1.98 µM
- EC50 (MERS; Vero C1008): 2.53 µM
- CC50 (in vitro [15]): > 230 µM
- half-life at 1 μM ([22]; microsomes): 7 min
- EC50 (Flu B): 0.74 µM and 0.67 µM
- EC50 (Flu B; Influenza B virus, MDCK): 0.78 µM
- EC50 (Marpol virus): 19.1 µM
- EC50 (Marpol virus; Vero): 25.3 µM
- EC50 (Tacaribe virus): 0.046 µM
- EC90 (Tacaribe virus; [26]): 0.046 µM
- half-life at 1 μM (Plasma stability [7]): 12 min
- EC90 (Pichinde virus): 0.55 µM
- half-life at 1 μM ([23]; microsomes): 8 min
- EC50 (Parainfluenza virus 3): 78.2 µM
- EC50 (Parainfluenza virus 3; MA104): 73.6 µM
- EC90 [24]: 4.6 µM
- EC50 (Junin virus): 0.37 µM
- EC90 (Junin virus; Mammarenavirus juninense, Vero): 0.023 µM
- EC50 (Usutu virus): 6.9 µM
- EC90 (Usutu virus): 25.8 µM
- EC50 (Flu A H5N1 (High Path)): 11.3 µM
- EC50 (La Crosse virus): 0.69 µM
- EC90 (La Crosse virus; La Crosse virus, Vero 76): 0.12 µM
- EC50 (WEEV): 5.75 µM and 5.98 µM
- EC50 (WEEV; [28]): 7.82 µM
- EC90 (WEEV; [28]): 24.2 µM
- CC50 (in vitro [25]): > 230 µM
- EC50 (Punta Toro virus): 5.75 µM
- EC50 (Punta Toro virus; Punta Toro virus, Vero 76): 6.21 µM
- EC50 (ZIKV; ZIKV): 7.82 µM and 9.2 µM
- EC90 (ZIKV; Zika virus, Vero 76): 43.7 µM
- EC50 (ZIKV; Zika virus, Vero 76, ZIKV): 8.28 µM
- EC50 (EBOV): 150 µM
- EC50 (HRV-14): > 230 µM
- EC50 (RVFV): 3.68 µM and 4.14 µM
- EC50 (Enterovirus-68; Enterovirus D, RD, Enterovirus-68, RD cells): 7.36 µM
- EC50 (Enterovirus-68; Enterovirus-68, RD cells): 7.82 µM
- EC50 (Flu A H7N9 (High Path)): 4.37 µM
- EC50 (Flu A H7N9 (High Path); Influenza A virus, H7N9, MDCK): 5.29 µM

Compound: CC(C)C(=O)OC[C@@]1(F)O[C@@H](n2ccc(=O)[nH]c2=O)[C@H](O)[C@@H]1O [EIDD-2947, [(2S,3S)-5-(2,4-dioxopyrimidin-1-yl)-2-fluoro-3,4-dihydroxy-tetrahydrofuran-2-yl]methyl 2-methylpropanoate]
- half-life at 1 μM (Plasma stability [1]): 1 min
- half-life at 1 μM (Plasma stability [2]): 9 min
- half-life at 1 μM ([21]; liver microsomes): 44 min
- half-life at 1 μM ([22]; liver microsomes): 1 min
- half-life at 1 μM (Plasma stability [7]): 2 min
- half-life at 1 μM ([23]; liver microsomes): 10 min

— patent publication US20260124226A1 (priority 2023, published 2026)
